Data taken from paper PMC7938888, “Antidepressant drugs act by directly binding to TRKB neurotrophin receptors” (Cell, 2021).

B1: BDNF: brain-derived neurotrophic factor, TRKB ligand (protein, UniProt P23560 19-247, looked up)
Neurotrophic factor BDNF …: APMKEANIRGQGGLAYPGVRTHGTLESVNGPKAGSRGLTSLADTFEHVIEELLDEDQKVRPNEENNKDADLYTSRVMLSSQVPLEPPLLFLLEEYKNYLDAANMSMRVRRHSDPARRGELSVCDSISEWVTAADKKTAVDMSGGTVTVLEKVPVSKGQLKQYFYETKCNPMGYTKEGCRGIDKRHWNSQCRTTQSYVRALTMDSKKRIGWRFIRIDTSCVCTLTIKRGR

Key:
TRKB = TRKB (Mus musculus, UniProt P15209); test: Cell-free ligand binding assay on immobilised TRKB from HEK293T lysates; parameters: wild-type GFP-tagged full length TRKB or the GFP-tagged Y433F TRKB mutant; host or cells: HEK293T; settings: for displacement of biotinylated FLX from TRKB: biotinylated FLX 1 μM
GFP-TRKB.Y433F = test: dSTORM/TIRF of GFP-TRKB.Y433F clusters on MG87.TRKB cells; type: cell-based, mouse; settings: BDNF 10 ng/ml, FLX 10 μM, CHOL 20 μM, KET 10 μM; 15 min
Description: (§1) For direct stochastic optical reconstruction microscopy (dSTORM) MG87.TRKB cells were grown on cell view 35mm dishes with glass bottom (Greiner) coated with poly-L-lysine (Sigma). […] Briefly, cells were fixed 24 hours post transfection with 4% PFA for 20 minutes, washed three times for 5 min with 1x PBS and incubated in blocking buffer (1% BSA, 0.1% gelatin, 5% goat serum, 0.1% Triton X-100 and 0.05% Tween-20 in PBS; all from Sigma) for 1 hour. The primary antibody against GFP (Abcam, #ab290) was diluted 1:100 and incubated overnight at +4°C, while the secondary antibody Alexa Fluor-conjugated goat-anti-rabbit 647 (Invitrogen) was diluted 1:500 and incubated at room temperature for 1 hour. The dishes were stored in +4°C in 1x PBS no longer than 48 hours before imaging.
(§2) During imaging, cells were maintained in blinking buffer (10% glucose, 0.07% cysteamine, 0.75 mg/ml glucose oxidase and 0.04 mg/ml catalase in 0.1 M Tris buffer, pH 7.8-8; all reagents from Sigma-Aldrich), which was freshly prepared and changed every hour. Imaging was performed in TIRF mode (TIRF angle 89.3 calibrated with ring-TIRF at least twice per sample) to specifically image the fluorophores at the plasma membrane. A GE DeltaVision OMX SR system (GE Healthcare) equipped with an Apo N 60x/1.49 oil objective and a sCMOS camera was used to acquire the images. The 640 nm diode laser was used at 100% of power to excite the Alexa 647 fluorophores while the 405 nm laser was adjusted until approximately 50% of power in order to maintain the blinking throughout the imaging session. For each cell, 35000 frames were acquired, and the localization map of single fluorophores was reconstructed with SoftWoRx 7.0 software (GE Healthcare). For the localization map, the first 1000 frames approximately were discarded and the reconstruction parameters were maintained identical for all the samples.
(§3) Reconstruction parameters: For the localization of all the blinking events in the dataset, the point spread function size factor was set at 1.550 with a local maximum factor of 0.05. Drift correction was adjusted dividing the frames into 20 groups. Tracking of the fluorophores was performed with a maximum localization precision of 100 nm without fiducial markers. The final localization map of the fluorophores identified was built with a reconstruction pixel size of 10 nm and localization precision set at 5 and 100 nm respectively for the minimum and the maximum, and a fluorophore persistence threshold set at 3 frames.
(§4) The analysis of the reconstructed images was performed in Fiji. Depending on the size of picture, 5 or 10 representative regions of interest (ROIs) of 2x1 μm were blindly chosen per cell and used for particle analysis of the TRKB-positive clusters. […]

GFP-TRKB [1] = test: dSTORM/TIRF of GFP-TRKB clusters on MG87.TRKB cells; type: cell-based, mouse; settings: BDNF 10 ng/ml, FLX 10 μM, CHOL 20 μM, KET 10 μM; 15 min
Description: as §1, §2, §3, §4

GFP-TRKB [2] = test: FRAP of GFP-TRKB in dendritic spines of hippocampal neurons; type: cell-based, rat; settings: BDNF 20 ng/mL, FLX 1 μM, KET 10 μM; 15 min pretreatment
Description: For the fluorescence recovery after photobleaching (FRAP) experiments, E18 rat embryo hippocampal cells were plated onto glass coverslips coated with poly-L-lysine (Sigma-Aldrich) in 4-well cell culture plates at a density of 200.000 cells/well. The cultures were incubated at +37°C in serum-free Neurobasal medium (supplemented with 2% B27, 1% L-glutamine and 1% ampicillin) for approximately 2 weeks (DIV 14-16), renewing half of the growth media weekly. Then, they were transfected with Lipofectamine 2000 (Invitrogen) in order to overexpress GFP-tagged TRKB constructs (TRKB.WT or TRKB.Y433F). The cultures were incubated with the transfection mix (per well: 50ul neurobasal medium, 1ul Lipofectamine 2000, 1ug plasmid DNA) in serum-free media for 1.5 hours, followed by 3x medium washes and returned to the original growth medium after that. The cells were left at +37°C o/n to overexpress the constructs ([Koskinen et al., 2012]). Next day, FRAP was performed with a confocal microscope (Zeiss LSM 710, Carl Zeiss AG) adapted for live cell imaging with a chamber set at +37°C and 5%CO2 (Zeiss Temp Module system, Carl Zeiss AG). Coverslips with the cultured hippocampal neurons were carefully transferred to 35mm Petri dishes with warm HBSS medium without phenol red or serum to avoid sources of background fluorescence. After a 10 minutes adaptation period in the microscope chamber to avoid focus drift caused by temperature fluctuations of the stage and objective, dendritic shafts or spines (spine head diameter = ∼1um) were localized with a 63x/0.90 NA dipping water objective. Picture format was 512x512 pixels. The nominal speed to capture images was set to 9 (pixel dwell 3.15 μseconds, taking approximately 0.5 s to finish a scan), and the pinhole aperture was set to completely open to obtain a strong fluorescent signal ([Koskinen et al., 2012]; [Zheng et al., 2011]). Once a region of interest (ROI) was selected with a circle that contained the whole spine, it was bleached to establish the FRAP baseline. […]

TRKB, sequence (P15209 32-821): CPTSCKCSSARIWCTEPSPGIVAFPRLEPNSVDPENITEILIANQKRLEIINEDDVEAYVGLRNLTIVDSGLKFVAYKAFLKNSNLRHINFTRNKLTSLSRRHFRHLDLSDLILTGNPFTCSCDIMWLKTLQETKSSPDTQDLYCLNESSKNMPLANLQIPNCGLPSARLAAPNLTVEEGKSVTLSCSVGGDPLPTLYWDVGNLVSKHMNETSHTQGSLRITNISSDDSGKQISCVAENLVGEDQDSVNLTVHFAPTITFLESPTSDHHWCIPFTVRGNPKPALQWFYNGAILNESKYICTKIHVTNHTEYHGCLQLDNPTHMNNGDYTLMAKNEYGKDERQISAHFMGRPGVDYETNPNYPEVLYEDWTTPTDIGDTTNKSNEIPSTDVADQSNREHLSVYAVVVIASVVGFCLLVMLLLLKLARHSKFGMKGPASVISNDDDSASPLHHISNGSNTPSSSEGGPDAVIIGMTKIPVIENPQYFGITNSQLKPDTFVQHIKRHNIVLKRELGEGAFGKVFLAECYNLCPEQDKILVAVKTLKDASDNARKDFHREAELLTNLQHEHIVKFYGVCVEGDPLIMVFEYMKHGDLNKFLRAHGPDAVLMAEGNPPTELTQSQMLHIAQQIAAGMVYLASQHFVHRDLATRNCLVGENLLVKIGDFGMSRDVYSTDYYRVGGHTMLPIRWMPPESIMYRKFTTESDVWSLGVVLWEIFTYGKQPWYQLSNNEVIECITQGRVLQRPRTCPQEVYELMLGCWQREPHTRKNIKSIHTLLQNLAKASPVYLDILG

Molecule	effect on interaction of biotinylated FLX and R,R-HNK with TRKB (TRKB)	size of clusters of GFP-TRKB.Y433F at the plasma membrane (GFP-TRKB.Y433F)	size of clusters formed by wild-type GFP-TRKB at the plasma membrane (GFP-TRKB [1])	Ki (TRKB) [µM]	displacement of biotinylated FLX from TRKB (TRKB)	recovery of GFP-TRKB fluorescence in dendritic spines after bleaching (GFP-TRKB [2])	Kd (TRKB; TRKB.wt, read-out: binding affinity of BDNF) [pM]
CC(C)CCC[C@@H](C)[C@H]1CC[C@H]2[C@@H]3CC=C4C[C@@H](O)CC[C@]4(C)[C@H]3CC[C@]12C [CHOL, cholesterol]	increased the interaction of these compounds with TRKB	not clusters of GFP-TRKB.Y433F mutants	increased the size of clusters				
CNC1(c2ccccc2Cl)CCCCC1=O (stereo not shown) [KET, ketamine]		not clusters of GFP-TRKB.Y433F mutants	increased the size of clusters	12.3	readily displaced	promoted recovery of GFP-TRKB fluorescence in dendritic spines	
CNCCC(Oc1ccc(C(F)(F)F)cc1)c1ccccc1 (stereo not shown) [FLX, fluoxetine]		not clusters of GFP-TRKB.Y433F mutants	increased the size of clusters			promoted recovery of GFP-TRKB fluorescence in dendritic spines	
B1		not clusters of GFP-TRKB.Y433F mutants	increased the size of clusters		failed to displace	rapid recovery of GFP-TRKB fluorescence in spines	3.1
